Results reported in US10342766B2, “6-shogaol derivatives and activities thereof” (North Carolina Agricultural and Technical State University, priority 2017, dated 2019).
Several values for one entry are separate records, joined by “and”; a condition that tells them apart may be missing. Identical values can stand only once.

Key:
Nrf2 = Nrf2 reporter activity by Tg(gstp1:GFP) fluorescence in transgenic zebrafish embryos; format: in vivo; details: 5 μM, 24-hour treatment from 1 dpf to 2 dpf; olfactory epithelia; relative to vehicle (DMSO = 1.00)
Description: Zebrafish AB transgenic strains Tg(gstp1:GFP) were maintained in a Pentair Aquatic Ecosystem (Apopka, Fla., United States of America) fish housing unit with 14 h light/10 h dark cycle (see Tsujita, T., Li, L., Nakajima, H., Iwamoto, N., Nakajima-Takagi, Y., Ohashi, K., Kawakami, K., Kumagai, Y., Freeman, B. A., Yamamoto, M., and Kobayashi, M. (2011) “Nitro-fatty acids and cyclopentenone prostaglandins share strategies to activate the Keap1-Nrf2 system: a study using green fluorescent protein transgenic zebrafish.” Genes Cells 16, 46-57). The fish embryos were maintained at 28.5° C. in 0.3× Danieau's solution (19.3 mM NaCl, 0.23 mM KCl, 0.13 mM MgSO4, 0.2 mM Ca(NO3)2, 1.7 mM HEPES, pH 7.0) containing 30 μg/ml phenylthiourea (PTU) to inhibit pigmentation. Tg(gstp1:GFP) cross with AB wild-type strain fluorescence embryos were used for the experiment. Zebrafish embryos were washed, dechorionated and anaesthetized before observations, and fluorescence imaging for analysis.
Transgenic zebrafish embryos at 1 day-post-fertilization (dpf) were dechorionated and placed in Petri dishes containing different chemicals diluted in 0.3× Danieau's solution containing PTU. The chemical stock was dissolved in DMSO at 5 mM concentration.
An Olympus MVX10 Fluorescence Macroscope (Olympus, Center Valley, Pa., United States of America) equipped with a Hamamatsu C9300-221 high-speed digital CCD camera (Hamamatsu City, Japan) was used for fluorescence microscopy. Tg(gstp1:GFP) fluorescent embryos were anaesthetized in tricaine and imaged at 2 dpf. MetaMorph Basic software (Olympus, Center Valley, Pa., United States of America) was used for image acquisition and analysis.
Quantification of Nrf2 Reporter Activity by Tg(gstp1:
GFP) Fluoresence in Zebrafish Model. The fluorescence intensity of the olfactory neural epithelia was quantitated using MetaMorph Basic software. In brief, GFP expression in the olfactory regions of Tg(gstp1:GFP) embryos treated with various chemicals was measured after 24-hour treatment from 1 dpf to 2 dpf. The GFP induction was detectable by fluorescence signal at the area of the olfactory epithelia in the anterior of the head region, the intensity was measured using an area of a circle of 60 pixel diameter of the fluorescence olfactory epithelia subtracted by a background non-fluorescence area next to the zebrafish embryo. Both the left and right olfactory epithelia were measured to give an average fluorescence value. The values are an average of measurements from at least 10 embryos.

[1] = tested on: human colon cancer cells HCT-116; assay: MTT growth inhibition, HCT-116; format: cell-based; details: 24 hours
Description: (§1) Cell viability was determined by an MTT colorimetric assay. Briefly, human colon cancer cells HCT-116 or HT-29, were plated in 96-well microtiter plates with 3000 cells/well and allowed to attach for 24 hours at 37° C. and 5% CO2. The test compounds (in DMSO) were added to cell culture medium to desired final concentrations (final DMSO concentrations for control and treatments were 0.1%). After the cells were cultured for 24 hours, the medium was aspirated and cells were treated with 200 μL fresh medium containing 2.41 mmol/L MTT. After incubation for 3 hours at 37° C., the medium containing MTT was aspirated, 100 μL of DMSO was added to solubilize the formazan precipitate, and the plates were shaken gently for an hour at room temperature. Absorbance values were derived from the plate reading at 550 nm on a Biotek (Winooski, Vt., United States of America) microtiter plate reader. The reading reflected the number of viable cells and was expressed as a percentage of viable cells in the control. CCD-18Co cells were grown in EMEM. Both HCT-116 and HT-29 cells were cultured in McCoy's 5A medium. All of the above media were supplemented with 10% fetal bovine serum, 1% penicillin/streptomycin, and 1% glutamine, and the cells were kept in a 37° C. incubator with 95% humidity and 5% CO2.

[2] = tested on: human colon cancer cells HT-29; assay: MTT growth inhibition, HT-29; format: cell-based; details: 24 hours
Description: as §1

[3] = Biotransformation in zebrafish embryos (cysteine conjugates, LC/MS); format: in vivo; details: 5 μM in incubation medium, 8 hpf to 24 hpf
Description: Fifty zebrafish embryos at the 8 hour-post-fertilization (hpf) stage were incubated at 28.5° C. in 0.3× Danieau's solution (19.3 mM NaCl, 0.23 mM KCl, 0.13 mM MgSO4, 0.2 mM Ca(NO3)2, 1.7 mM HEPES, pH 7.0) with or without 5 μM 18 and 25-27, respectively. At 24 hpf, embryos were dechorionated manually and the chorions were carefully removed one by one from the culture medium. The zebrafish embryos were harvested and kept at −80° C. till analyzed by LC/MS.
200 μL Sodium acetate buffer solution (pH 5.0) was added to 50 zebrafish embryos. Samples were homogenized for 90 s by an Omni Bead Ruptor Homogenizer (Kennesaw, Ga., United States of America). 10 μL 10% ascorbic acid and 300 μL sodium acetate buffer were added to the homogenates. The mixture was incubated in the presence of β-glucuronidase (250 U) and sulfatase (3 U) at 37° C. for 45 min, and then 600 μL MeOH with 1% acetic acid was added. The resulting mixture was vortexed for 30 s and then centrifuged at 17000 g for 10 min. The supernatant was removed and evaporated under a gentle stream of nitrogen. The residue was reconstituted in 150 μL 90% MeOH with 0.2% acetic acid (AA), and 10 μL was analyzed directly by LC/MS.
LC/MS analysis was carried out with a Thermo-Finnigan Spectra System, which consisted of an Accela high speed MS pump, an Accela refrigerated autosampler, and an LCQ Fleet ion trap mass detector (Thermo Electron, San Jose, Calif., United States of America) incorporated with an electrospray ionization (ESI) interface. A Gemini-NX C18 column (150 mm×4.6 mm i.d., 5 μm; Phenomenex, Torrance, Calif., United States of America) was used for separation at a flow rate of 0.3 mL/min. The column was eluted with 100% A (5% aqueous methanol with 0.2% formic acid) for 1 min, followed by linear increases in B (95% aqueous methanol with 0.2% formic acid) to 55% from 1 to 4 min, to 85% from 4 to 25 min, then to 100% B from 25 to 30 min, and then with 100% B from 30 to 35 min. The column was then re-equilibrated with 100% A for 5 min. The LC eluent was introduced into the ESI interface. The positive ion polarity mode was set for the ESI source with the voltage on the ESI interface maintained at approximately 4.6 kV. Nitrogen gas was used as the sheath gas and auxiliary gas. Optimized source parameters, including capillary temperature (260° C.), sheath gas flow rate (31 arbitrary units), auxiliary gas flow rate (16 units), tube lens (34 V), and capillary voltage 9 V, were tuned using authentic samples. The collision-induced dissociation (CID) was conducted with an isolation width 2 Da and normalized collision energy of 35 for MS^2. The mass range was measured from 100 to 800 m/z. Data acquisition was performed with Xcalibur version 2.0 (Thermo Electron, San Jose, Calif., United States of America).

IC50 [1]: 5.42 µM | IC50 [2]: 11.5 µM
Compound: CCCCC/C=C/C(=O)/C=C/c1ccc(O)c(O)c1 [Compound 26]
Ratio/CTL, Tg(gstp1:GFP) fluorescence signal (Nrf2): 6.96 and 6.96 ± 0.48 | Cysteine conjugates found in zebrafish embryos [3]: Three conjugates 37, 37b, and 38 were detected
